Laboratory results taken from PMC3914206.

What was measured:
Assay type in all cases: binding
Set-up in all cases: KINOMEscan: ABL1(F317L)-phosphorylated / KINOMEscan: ABL1(H396P)-nonphosphorylated / KINOMEscan: ABL1(H396P)-phosphorylated / KINOMEscan: ABL1(M351T)-phosphorylated / KINOMEscan: ABL1(T315I)-phosphorylated / KINOMEscan: ABL1-nonphosphorylated / KINOMEscan: ABL1-phosphorylated / KINOMEscan: ACVR2A / KINOMEscan: ACVR2B / KINOMEscan: ADCK3 / KINOMEscan: ADCK4 / KINOMEscan: AKT1 / KINOMEscan: AKT3 / KINOMEscan: ALK / KINOMEscan: ARK5 / KINOMEscan: AURKA / KINOMEscan: AURKC / KINOMEscan: BIKE / KINOMEscan: BMPR1A / KINOMEscan: BMPR1B / KINOMEscan: BMX / KINOMEscan: BRK / KINOMEscan: BRSK1 / KINOMEscan: BRSK2 / KINOMEscan: CAMK1 / KINOMEscan: CAMK1D / KINOMEscan: CAMK1G / KINOMEscan: CAMK2A / KINOMEscan: CAMK2B / KINOMEscan: AAK1 / KINOMEscan: CAMK2D / KINOMEscan: CAMK2G / KINOMEscan: ABL1(F317I)-nonphosphorylated / KINOMEscan: ABL1(F317I)-phosphorylated / KINOMEscan: ABL1(F317L)-nonphosphorylated: unit: % Ctrl
panel of 442 kinases [1] = target: T1, panel of 442 kinases (Homo sapiens, UniProt Q13557); details: Compound Concentration 10 µM
T1 construct: purchased KINOMEscan
From the text: (§1) We assessed the selectivity of members of this scaffold using the KINOMEscan methodology across a near comprehensive panel of 442 kinases [[18,27]].

panel of 442 kinases [2] = target: T2, panel of 442 kinases (Homo sapiens, UniProt Q5VT25); details: Compound Concentration 10 µM
T2 construct: purchased KINOMEscan
From the text: as §1

panel of 442 kinases [3] = target: T3, panel of 442 kinases (Homo sapiens, UniProt P23443); details: kinase S6K1; compound concentration 10 µM
T3 construct: purchased KINOMEscan
From the text: as §1

T2 sequence (Q5VT25 whole entry): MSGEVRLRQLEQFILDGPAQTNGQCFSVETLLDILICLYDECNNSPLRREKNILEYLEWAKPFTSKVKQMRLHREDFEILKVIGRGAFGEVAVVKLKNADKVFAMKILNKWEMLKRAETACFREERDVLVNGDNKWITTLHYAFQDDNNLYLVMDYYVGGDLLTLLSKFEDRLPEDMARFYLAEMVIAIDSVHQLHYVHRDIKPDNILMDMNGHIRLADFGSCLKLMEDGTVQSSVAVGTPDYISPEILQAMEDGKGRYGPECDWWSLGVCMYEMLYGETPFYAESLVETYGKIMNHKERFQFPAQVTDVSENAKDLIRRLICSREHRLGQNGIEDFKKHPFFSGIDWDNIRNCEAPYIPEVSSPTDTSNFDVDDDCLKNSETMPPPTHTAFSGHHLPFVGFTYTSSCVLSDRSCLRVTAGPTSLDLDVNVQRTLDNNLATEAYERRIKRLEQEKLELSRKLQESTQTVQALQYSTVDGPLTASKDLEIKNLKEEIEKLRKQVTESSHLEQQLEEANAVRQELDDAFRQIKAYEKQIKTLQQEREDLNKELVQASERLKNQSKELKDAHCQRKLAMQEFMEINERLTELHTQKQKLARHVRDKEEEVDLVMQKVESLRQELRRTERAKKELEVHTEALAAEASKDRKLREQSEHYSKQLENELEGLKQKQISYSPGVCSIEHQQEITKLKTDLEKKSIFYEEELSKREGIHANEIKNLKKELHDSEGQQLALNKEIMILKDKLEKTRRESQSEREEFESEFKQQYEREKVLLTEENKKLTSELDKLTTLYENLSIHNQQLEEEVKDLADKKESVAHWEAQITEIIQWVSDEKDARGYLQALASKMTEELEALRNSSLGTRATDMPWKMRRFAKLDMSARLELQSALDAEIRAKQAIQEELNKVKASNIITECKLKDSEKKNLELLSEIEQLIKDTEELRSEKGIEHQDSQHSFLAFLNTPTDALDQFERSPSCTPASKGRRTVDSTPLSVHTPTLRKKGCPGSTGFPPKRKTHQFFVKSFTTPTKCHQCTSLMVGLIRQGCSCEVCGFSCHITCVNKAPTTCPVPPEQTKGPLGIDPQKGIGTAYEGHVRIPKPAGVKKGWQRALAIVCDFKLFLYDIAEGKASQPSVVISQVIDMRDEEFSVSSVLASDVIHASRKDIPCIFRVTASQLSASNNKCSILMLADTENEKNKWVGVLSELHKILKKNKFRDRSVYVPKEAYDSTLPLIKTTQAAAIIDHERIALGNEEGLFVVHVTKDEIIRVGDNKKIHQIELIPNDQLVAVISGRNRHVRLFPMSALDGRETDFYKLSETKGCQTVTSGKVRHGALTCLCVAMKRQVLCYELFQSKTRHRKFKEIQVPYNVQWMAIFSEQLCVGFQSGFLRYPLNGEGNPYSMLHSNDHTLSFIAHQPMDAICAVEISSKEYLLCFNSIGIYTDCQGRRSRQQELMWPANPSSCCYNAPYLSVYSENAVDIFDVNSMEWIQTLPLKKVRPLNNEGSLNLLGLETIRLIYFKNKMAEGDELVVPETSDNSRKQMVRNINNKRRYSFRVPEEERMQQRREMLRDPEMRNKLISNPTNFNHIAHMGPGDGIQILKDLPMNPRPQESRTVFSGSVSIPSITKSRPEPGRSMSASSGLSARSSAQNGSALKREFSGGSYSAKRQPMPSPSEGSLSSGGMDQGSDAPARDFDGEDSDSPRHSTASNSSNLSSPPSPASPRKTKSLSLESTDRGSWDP
T1 sequence (Q13557 whole entry): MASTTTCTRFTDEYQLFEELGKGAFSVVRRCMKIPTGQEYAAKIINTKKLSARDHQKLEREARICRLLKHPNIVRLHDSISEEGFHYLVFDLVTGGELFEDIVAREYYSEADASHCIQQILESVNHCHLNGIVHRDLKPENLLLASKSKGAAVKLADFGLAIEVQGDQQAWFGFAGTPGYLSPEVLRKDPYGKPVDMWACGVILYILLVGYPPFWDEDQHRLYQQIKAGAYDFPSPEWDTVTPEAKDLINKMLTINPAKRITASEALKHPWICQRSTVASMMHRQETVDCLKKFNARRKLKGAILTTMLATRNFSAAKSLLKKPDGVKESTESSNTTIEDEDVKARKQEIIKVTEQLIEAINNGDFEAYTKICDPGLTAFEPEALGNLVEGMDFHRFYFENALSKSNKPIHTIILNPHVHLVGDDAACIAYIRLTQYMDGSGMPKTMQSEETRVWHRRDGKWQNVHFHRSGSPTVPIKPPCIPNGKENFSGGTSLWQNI
T3 sequence (P23443 whole entry): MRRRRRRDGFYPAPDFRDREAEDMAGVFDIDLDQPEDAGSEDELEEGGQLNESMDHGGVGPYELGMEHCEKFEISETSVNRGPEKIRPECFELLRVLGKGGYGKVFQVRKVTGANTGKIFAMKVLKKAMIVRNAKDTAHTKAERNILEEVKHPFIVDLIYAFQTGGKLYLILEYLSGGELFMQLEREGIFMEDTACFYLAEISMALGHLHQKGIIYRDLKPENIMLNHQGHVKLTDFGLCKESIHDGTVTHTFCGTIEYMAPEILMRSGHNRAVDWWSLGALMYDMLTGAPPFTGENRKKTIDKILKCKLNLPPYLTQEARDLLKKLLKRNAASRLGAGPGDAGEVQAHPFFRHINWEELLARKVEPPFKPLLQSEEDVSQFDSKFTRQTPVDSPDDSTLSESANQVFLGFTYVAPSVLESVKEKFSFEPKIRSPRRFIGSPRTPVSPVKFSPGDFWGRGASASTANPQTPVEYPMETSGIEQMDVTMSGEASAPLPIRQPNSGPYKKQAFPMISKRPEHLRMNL

| Structure (SMILES) | KINOMEscan: CAMK2D (panel of 442 kinases [1]) | KINOMEscan: MRCKA (panel of 442 kinases [2]) | % Ctrl, S6K1 (panel of 442 kinases [3]) [% Ctrl] |
| --- | --- | --- | --- |
| COc1cc(C(=O)N2CCC(N3CCN(C)CC3)CC2)ccc1Nc1ncc2c(n1)N(C)c1ccccc1C(=O)N2C [15 (LRRK2-IN-1)] | 28 | 100 | 100 |
| COc1cc(C(=O)N2CCC(N3CCN(C)CC3)CC2)ccc1Nc1ncc2c(n1)N1CCc3cccc(c31)C(=O)N2C [Compound 24] | 62 |  | 100 |
| COc1cc(C(=O)N2CCC(N3CCN(C)CC3)CC2)ccc1Nc1ncc2c(n1)N(C1CCCC1)c1ccccc1C(=O)N2C [Compound 25, 11-cyclopentyl-2-((2-methoxy-4-(4-(4-methylpiperazin-1-yl)piperidine-1-carbonyl)phenyl)amino)-5-methyl-5H-benzo[e]pyrimido[5,4-b][1,4]diazepin-6(11H)-one] | 100 | 100 | 100 |
| CCOc1cc(C(=O)N2CCC(N3CCN(C)CC3)CC2)ccc1Nc1ncc2c(n1)N(C1CCCC1)c1ccccc1C(=O)N2C [Compound 26] | 96 | 100 | 100 |
